Read-outs that look alike come from different tables or passages of the source. Each block holds one compound with its values, some of them ahead of it.
Legend:
renin release = renin release by the kidney; type: in vivo
adenosine receptors = test: adenosine agonist activity
[1] = system: blood brain barrier / central nervous system; test: brain entry / central side effects
A1 adenosine receptors = molecular target: T1, A1 adenosine receptors (Rattus norvegicus, UniProt P25099); test: membrane binding assay at A1 adenosine receptors (Tables 1 and 2)
T1 construct: rat cerebral cortex membranes; from tissue; host or cells: rat cerebral cortex membranes
T1 sequence (P25099 1-326): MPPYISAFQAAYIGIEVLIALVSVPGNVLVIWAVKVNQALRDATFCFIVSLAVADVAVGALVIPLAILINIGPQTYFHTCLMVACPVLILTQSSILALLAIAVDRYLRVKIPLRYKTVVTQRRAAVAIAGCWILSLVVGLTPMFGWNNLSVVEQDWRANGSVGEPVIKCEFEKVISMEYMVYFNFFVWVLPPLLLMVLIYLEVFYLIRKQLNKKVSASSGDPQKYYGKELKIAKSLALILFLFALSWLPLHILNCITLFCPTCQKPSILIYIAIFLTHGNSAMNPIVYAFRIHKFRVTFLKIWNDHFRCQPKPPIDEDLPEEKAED
Excerpt: Table 2 lists prodrugs (including Routes A and B of FIG. 2) and chemical intermediates, based on xanthine and adenosine functionalized congener and the method of synthesis. The potency of each compound at A1 adenosine receptors is indicated by the Ki (inverse relationship to potency) in a membrane binding assay.

[2] = system: adenosine receptors (glomerular filtration rate); test: glomerular filtration rate after N6-cyclohexyladenosine in rats; type: in vivo, rat
[3] = system: adenosine receptors (kidney and non-renal vasculature); test: blood pressure and sodium excretion in CHA-treated rats (Table 4); type: in vivo, rat
Protocol: ^1 CHA = N^6 -cyclohexyladenosine administered as a constant
infusion of 10 nanmoles/min./kg. Total dose administered over 45 min. was
approximately […] (= relatively high dose).
^2 Xanthine antagonists were administered in a bolus injection of 0.2
umoles/kg followed by an infusion of 2 nanamoles per kg/min.

acute renal failure = acute renal failure models (ischemia, glycerol injection); type: in vivo; settings: compared with theophylline and 8-phenyltheophylline
A2 receptor = molecular target: T2, A2 receptor (Homo sapiens, UniProt P29274); test: antagonism of NECA-induced stimulation of adenylate cyclase activity in human platelet membranes; type: biochemical; settings: antagonism of NECA-stimulated adenylate cyclase, human platelet membranes; means with 95% confidence limits from 3 experiments; read-out: A2 receptor KB
T2 construct: human platetlet membranes; from tissue; host or cells: human platelet membranes
Protocol: Measurements of the potencies of the xanthines as antagonists of NECA-induced stimulation of adenylate cyclase activity in human platetlet membranes and as inhibitors of [^3 H]PIA binding to rat cerebral cortex membranes were carried out as reported previously.

A2 adenosine receptors = test: reversal of 2-chloroadenosine-stimulated cyclic AMP production in guinea pig brain slices; type: cell-based; settings: amino acid conjugates of 1a
Excerpt: […]. As modifications of these xanthines designed to increases A2 -potency we have explored changing the size of the 1,3-dialkyl groups and incorporating distal amino groups in the functionalized 8-phenyl moiety.

solubility = type: physicochemical
[4] = stability to enzymatic hydrolysis; type: in vitro ADME
A1-receptors = settings: cited from earlier work
[5] = CHA infusion 10 nmol/min/kg, antagonists 0.2 umoles/kg bolus then 2 nmol/kg/min

T2 sequence (P29274 whole entry): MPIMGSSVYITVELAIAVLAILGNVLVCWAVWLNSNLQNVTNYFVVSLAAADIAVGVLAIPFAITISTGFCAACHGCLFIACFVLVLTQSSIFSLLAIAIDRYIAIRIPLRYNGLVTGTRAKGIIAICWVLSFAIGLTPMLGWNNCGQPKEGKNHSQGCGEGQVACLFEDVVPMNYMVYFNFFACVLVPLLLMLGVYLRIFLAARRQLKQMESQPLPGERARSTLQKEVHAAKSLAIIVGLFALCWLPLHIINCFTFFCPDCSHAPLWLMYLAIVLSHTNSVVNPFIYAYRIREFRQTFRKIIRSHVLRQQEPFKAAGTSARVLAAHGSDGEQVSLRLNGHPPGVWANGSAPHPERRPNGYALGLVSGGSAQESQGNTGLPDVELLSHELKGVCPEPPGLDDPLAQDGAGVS

SMILES: NCCNC(=O)Cc1ccc(NC(=O)Cc2ccc(Nc3ncnc4c3ncn4[C@@H]3O[C@H](CO)[C@@H](O)[C@H]3O)cc2)cc1 [Compound 1b]
renin release by the kidney (renin release): a decrease in renin release by the kidney
adenosine agonist potency in vitro and in vivo (adenosine receptors): highly potent as an adenosine agonist in vitro and in vivo
entry into the brain / passage across the blood brain barrier [1]: excluded from passage across the blood brain barrier

Ki (A1 adenosine receptors; Table 1, prodrug before cleavage, read-out: Ki(nM) at A1 Before Cleavage): 240 nM
Ki (A1 adenosine receptors; Table 2, read-out: Ki (A1(nM))): 240 nM
SMILES: CCCn1c(=O)c2[nH]c(-c3ccc(OCC(=O)NCCNC(=O)CC[C@H](NC(C)=O)C(=O)O)cc3)nc2n(CCC)c1=O [Compound 17, N-Acetyl-glutamic acid (gamma XAC)]
reversal of the effect of the adenosine agonist on glomerular filtration rate ([2]; XAC I.V. 5-50 ug/kg): even greater return of glomerular filtration rate than did XAC
% of normal glomerular filtration rate (after) ([2]; dose 10 × low, after xanthine, CHA-treated rats): 84.8%
% of normal glomerular filtration rate (before) ([2]; dose 10 × low, before xanthine, CHA-treated rats): 48%
reversal of hypotensive effect of adenosine agonists (non-renal vasculature) [3]: not by the prodrug, 17
Sodium excretion [3, 5]: 2.12 ± 0.36 uEq/min/kg
b.p. [3, 5]: 103.5 ± 3.5 mmHg
effect in acute renal failure (acute renal failure): act in the same manner except for considerably greater potency and selectivity
central side effects [1]: side effects of the xanthine acting as a central stimulant are not observed
entry into the brain / passage across the blood brain barrier [1]: entry into the brain is impeded

Kb (A2 receptor): 37 nM
potency (A2 adenosine receptors): high potency
water solubility (solubility): high water solubility
stability to enzymatic hydrolysis [4]: stability to enzymatic hydrolysis
SMILES: CCCn1c(=O)c2[nH]c(-c3ccc(OCC(=O)NCCNC(=O)[C@H](N)CCCCN)cc3)nc2n(CCC)c1=O [Compound 61c]

SMILES: CCCn1c(=O)c2[nH]c(-c3ccc(OCC(=O)NCCN)cc3)nc2n(CCC)c1=O [[^3 H]XAC]
affinity compared with [3H]DPX (A1-receptors): higher affinity

Reference: patent publication US4968672A, “Adenosine receptor prodrugs” (priority 1987, dated 1990)
